Results as given in patent US20250295639A1, “METHODS FOR TREATING HEART DISEASES” (Cytokinetics, Incorporated, priority 2024, published 2025).
Several values for one entry are separate records, joined by “and”; a condition that tells them apart may be missing. Identical values can stand only once.

How the values were obtained:
[1] = system: patients with symptomatic oHCM; test: SEQUOIA-HCM: cardiac biomarkers NT-proBNP and hs-cTnI; format: in vivo, human
Description: A further exploratory objective of this trial was to evaluate the effect of aficamten on biomarker levels, as determined by changes from baseline values in NT-pro-BNP, hs-cardiac-TnI and other biomarkers through Week 24. Cardiac biomarkers. Aficamten treatment led to an immediate and significant reduction in both NT-proBNP and hs-cTnI, with substantial lowering of both biomarkers by week 2. […] Biomarker lowering persisted to week 24 when the relative reduction from baseline was-80% (95% CI-83%, −77%, p<0.001) in NT-proBNP and −43% (−49%, […], p<0.001) in hs-cTnI. […] Serum levels of NT-proBNP decreased from baseline to week 24 from 735 (604, 894) ng/L to 143 (120, 171) ng/L in patients receiving aficamten and remained unchanged from 710 (587, 859) ng/L to 717 (596, 863) ng/L in those receiving placebo, while hs-troponin decreased from 17.1 (14.1, 20.8) ng/L to 9.5 (8.0, 11.3) ng/L with aficamten and remained unchanged from 16.6 (13.3, 20.7) to 16.5 (13.7, 19.9) ng/L in placebo (P<0.001 for both comparisons compared to placebo). […] In contrast hs-cTnI reduction reflected 3% (−18%, 30%) of aficamten's effect on pVO2.

[2] = system: patients with symptomatic oHCM; parameters: species or system human; details: in vivo
Description: Patients enrolled in this trial were required to have an LVEF≥60% prior to randomization, as confirmed by the central echocardiography laboratory. […] Dose escalation was performed on an individualized basis only if the following criteria were met: both post-Valsalva LVOT-G≥30 mmHg and biplane LVEF≥55%. Importantly, in contrast to CY 6021, the lower limit of LVEF for dose escalations was increased from 50% to 55% to provide a safety margin from the threshold of LVEF (<50%) that would trigger dose reduction. If the LVEF was <50% at any time, the dose of aficamten was down-titrated, and if the LVEF is <40% at any time, aficamten was temporarily interrupted.
To evaluate the safety and tolerability profile of aficamten in patients with symptomatic oHCM, the following were recorded: (1) incidence of reported major adverse cardiac events (cardiovascular [CV] death, cardiac arrest, non-fatal stroke, non-fatal myocardial infarction, CV hospitalization); (2) incidence of new onset persistent atrial fibrillation; (3) incidence of appropriate implantable cardiac defibrillator (ICD) discharges and aborted sudden cardiac death; (4) incidence of left ventricular ejection fraction (LVEF)<50%; and (5) incidence of treatment emergent adverse events.

[3] = system: patients with symptomatic oHCM; test: SEQUOIA-HCM secondary analysis: clinical response / responder analyses (NYHA class, KCCQ-CSS, hemodynamic response, exercise capacity); format: in vivo, human
Description: A secondary objective of this trial was to evaluate the effect of aficamten on patient health status, as determined by changes in the Kansas City Cardiomyopathy Questionnaire-Clinical Summary Score (KCCQ-CSS) from baseline to Week 12 and Week 24. A further secondary objective of this trial was to evaluate the effect of aficamten on New York Heart Association (NYHA) Functional Classification, as determined by the proportion of patients with ≥1 class improvement in NYHA Functional Class from baseline to Week 12 and Week 24. An exploratory objective of this trial was to evaluate the effect of aficamten on exercise capacity and functional class, as determined by comparing with baseline, the number of patients at Week 24 achieving either (1) change from baseline of ≥1.5 mL/kg/min in pVO2 AND ≥1 class improvement in NYHA Functional Class; or (2) Change from baseline of ≥3.0 mL/kg/min in pVO2 AND no worsening of NYHA Functional Class. A further exploratory objective of this trial was to evaluate the effect of aficamten on patient response over time, as determined by (1) […]; (2) proportion of patients with resting LVOT-G<30 mmHg, post-Valsalva LVOT-G<50 mmHg, […]; and (3) proportion of patients with resting LVOT-G<30 mmHg, post-Valsalva LVOT-G<50 mmHg, […] Secondary Analysis of the Results of the SEQUOIA-HCM Study. In a sub-analysis of the results of Example 8 (i.e, the results of the SEQUOIA-HCM Study) we sought to comprehensively characterize the broad clinical impact of aficamten with respect to responder analyses across a number of clinically relevant, patient-centric outcome domains. […] For patients with missing data, the last available observation (week 8 to week 20) was used. Patients with no available data on or after week 8 were classified as not meeting the efficacy criteria. Patients were then classified according to the number of efficacy outcome definitions that they met. Baseline characteristics were summarized using means and standard deviations or median and interquartile for continuous normal and skewed variables, as well as counts and percentages for categorical variables. These characteristics were compared across groups using trend tests (linear regression, chi-squared tests of trend, and Cuzick's non-parametric trend tests). Proportions of patients meeting each efficacy outcome definition were compared between treatment groups using chi-squared tests, and linear regression was used to assess the treatment effect of aficamten vs placebo on change in efficacy outcomes while also adjusting for baseline value, CPET modality at baseline and beta blocker use at baseline. No adjustments were made for multiple comparisons. Two-sided p-values less than 0.05 were considered statistically significant.

[4] = 142 patients treated with aficamten
[5] = of the 101 aficamten symptomatic responders

CCc1nc(-c2ccc3c(c2)CC[C@H]3NC(=O)c2cnn(C)c2)no1 [aficamten, (R)—N-(5-(5-ethyl-1,2,4-oxadiazol-3-yl)-2,3-dihydro-1H-inden-1-yl)-1-methyl-1H-pyrazole-4-carboxamide]
hs-cTnI relative reduction from baseline ([1]; Week 24): −43%
patients with 50% relative reduction in hs-troponin ([1]; aficamten group, week 24): 31%
patients with ≥50% reduction in NT-proBNP relative to baseline ([1]; aficamten group, week 24): 84%
hs-troponin level ([1]; aficamten, week 24, baseline 17.1 (14.1, 20.8)): 9.5 (8.0, 11.3) ng/L
serum level of NT-proBNP ([1]; aficamten, week 24, baseline 735 (604, 894)): 143 (120, 171) ng/L
NT-proBNP and hs-cTnI concentrations after cessation of aficamten ([1]; after the treatment period): returning to baseline values
NT-proBNP reduction ([1]; week 8): 79%
hs-cTnI reduction ([1]; week 8): 41%
instances of per protocol down-titration [2]: no instances
patients with moderate to large KCCQ-CSS improvement of ≥10 to <20 ([3]; 142 patients on aficamten): 27%
patients with no change or a decrease in KCCQ-CSS score (<5 points) ([3]; 142 patients on aficamten): 37%
patients with small KCCQ-CSS improvement of ≥5 to <10 ([3]; 142 patients on aficamten): 13%
patients with very large KCCQ-CSS change of ≥20 ([3]; 142 patients on aficamten): 22%
patients improved from NYHA class II to I [3, 4]: 39%
patients improved from NYHA class III to I [3, 4]: 11%
patients improved from NYHA class III to II [3, 4]: 9%
patients with no change in NYHA class [3, 4]: 38%
patients worsened from NYHA class II to class III [3, 4]: 2%
>1.5 mL/kg/min increase in pVO2 and ≥1 NYHA class improvement or ≥3.0 mL/kg/min increase in pVO2 and no worsening of NYHA class ([3]; Aficamten (N = 142)): 60 (42) n (%)
≥1.5 mL/kg/min increase in pVO2 and ≥1 NYHA class improvement ([3]; Aficamten (N = 142)): 44 (31) n (%)
≥3.0 mL/kg/min increase in pVO2 and no worsening of NYHA class ([3]; Aficamten (N = 142)): 37 (26) n (%)
≥3.0 mL/kg/min increase in pVO2 and ≥1 NYHA class improvement ([3]; Aficamten (N = 142)): 21 (15) n (%)
responder endpoint, difference vs. placebo ([3]; Week 24): 28.7%
responder endpoint, number needed to treat (NNT) ([3]; Week 24): 3
patients with improvement of ≥1 NYHA functional class and/or ≥10 point increase in KCCQ-CSS (symptomatic response) ([3]; aficamten group, week 2): 36%
patients with complete hemodynamic response (rest gradient <30 mmHg and Valsalva gradient <50 mmHg) ([3]; aficamten group, week 8): 70%
patients with improvement of ≥1 NYHA functional class and/or ≥10 point increase in KCCQ-CSS (symptomatic response) ([3]; aficamten group, week 8): 58%
patients achieving ≥1 of the 4 prespecified clinical response measures ([3]; aficamten group, week 24): 97%
patients improved in 2 clinical response measures ([3]; aficamten group, week 24): 26%
patients improved in 3 clinical response measures ([3]; aficamten group, week 24): 39%
patients improved in all 4 clinical response measures ([3]; aficamten group, week 24): 23%
patients who achieved one clinical response measure ([3]; aficamten group, week 24): 9%
patients with improvement in exercise capacity, pVO2 of ≥1.5 mL/kg/min ([3]; aficamten group, week 24): 47%
patients with improvement of ≥1 NYHA functional class and/or ≥10 point increase in KCCQ-CSS (symptomatic response) ([3]; aficamten group, week 24): 71%
patients meeting responder endpoint (pVO2 ≥1.5 mL/kg/min and ≥1 NYHA improvement, or pVO2 ≥3.0 mL/kg/min and no worsening in NYHA) ([3]; aficamten, Week 24): 42% and 42.3%
patients who achieved pVO2 of ≥1.5 mL/kg/min and ≥1 improvement in NYHA class ([3]; aficamten, Week 24): 31%
patients with pVO2 ≥3.0 mL/kg/min and no worsening in NYHA ([3]; aficamten, Week 24): 26%
patients who resolved their symptoms completely (NYHA class I) ([3]; end of the treatment period): close to half of patients
symptomatic responders with improvement in both NYHA and KCCQ [3, 5]: 51%
symptomatic responders with ≤10 point improvement in KCCQ but ≥1 improvement in NYHA functional class [3, 5]: 31%
symptomatic responders with ≥10 point improvement in KCCQ-CSS and no improvement in NYHA class [3, 5]: 18%
Common Rate Difference (vs. Placebo) ([3]; pVO2/NYHA composite responder): 29
